From the kinase profiling compilation of Christmann-Franck et al. (2016)

Experiments:
Test in all cases: radiometric filter-binding kinase assay
[1] = target: MAPKAPK5 (human) (UniProt Q8IW41)
[2] = target: YES1 (human) (UniProt P07947); conditions: compound 10.0 µM
[3] = target: MAPK10 (human) (UniProt P53779)
[4] = target: HIPK1 (human) (UniProt Q86Z02); conditions: compound 10.0 µM
[5] = target: GCK (human) (UniProt Q12851); conditions: compound 10.0 µM
[6] = target: BRSK2 (human) (UniProt Q8IWQ3)
[7] = target: HIPK2 (human) (UniProt Q9H2X6)
Sequence of HIPK2 (human) (Q9H2X6 whole entry, looked up): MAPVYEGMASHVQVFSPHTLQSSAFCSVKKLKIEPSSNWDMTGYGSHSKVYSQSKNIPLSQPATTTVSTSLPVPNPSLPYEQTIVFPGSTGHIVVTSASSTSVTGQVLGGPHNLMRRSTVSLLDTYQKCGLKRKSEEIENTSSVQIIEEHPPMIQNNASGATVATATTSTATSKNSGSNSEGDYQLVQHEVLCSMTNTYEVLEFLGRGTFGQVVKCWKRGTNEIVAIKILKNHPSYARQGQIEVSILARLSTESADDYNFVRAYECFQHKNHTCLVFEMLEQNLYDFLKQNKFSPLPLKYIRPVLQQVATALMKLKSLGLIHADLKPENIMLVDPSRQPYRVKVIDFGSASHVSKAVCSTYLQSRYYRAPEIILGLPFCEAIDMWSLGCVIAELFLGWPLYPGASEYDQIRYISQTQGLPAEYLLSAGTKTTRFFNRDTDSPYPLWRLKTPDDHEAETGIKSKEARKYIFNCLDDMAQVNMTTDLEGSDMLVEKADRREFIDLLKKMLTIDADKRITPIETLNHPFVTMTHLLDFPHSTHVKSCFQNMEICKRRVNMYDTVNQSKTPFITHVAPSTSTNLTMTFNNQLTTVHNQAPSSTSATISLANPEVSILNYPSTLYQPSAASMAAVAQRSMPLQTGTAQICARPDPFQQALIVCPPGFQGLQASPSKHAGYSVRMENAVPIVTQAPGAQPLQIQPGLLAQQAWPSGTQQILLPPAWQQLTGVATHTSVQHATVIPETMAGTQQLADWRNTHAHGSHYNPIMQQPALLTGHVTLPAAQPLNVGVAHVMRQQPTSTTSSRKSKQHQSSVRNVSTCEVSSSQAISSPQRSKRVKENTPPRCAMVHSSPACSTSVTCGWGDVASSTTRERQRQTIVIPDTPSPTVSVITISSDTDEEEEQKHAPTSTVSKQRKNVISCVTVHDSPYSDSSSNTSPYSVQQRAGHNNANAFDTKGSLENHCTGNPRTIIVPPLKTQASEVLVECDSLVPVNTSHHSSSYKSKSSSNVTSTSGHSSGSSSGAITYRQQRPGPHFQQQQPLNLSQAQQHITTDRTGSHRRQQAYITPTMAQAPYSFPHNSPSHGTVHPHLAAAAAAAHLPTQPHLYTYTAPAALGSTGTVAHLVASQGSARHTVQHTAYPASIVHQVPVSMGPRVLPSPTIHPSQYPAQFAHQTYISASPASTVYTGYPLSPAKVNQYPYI

[8] = target: MAP3K1 (human) (UniProt Q13233); conditions: compound 10.0 µM
[9] = target: MAPK9 (human) (UniProt P45984)
[10] = target: DYRK3 (human) (UniProt O43781)
Sequence of DYRK3 (human) (O43781 whole entry, looked up): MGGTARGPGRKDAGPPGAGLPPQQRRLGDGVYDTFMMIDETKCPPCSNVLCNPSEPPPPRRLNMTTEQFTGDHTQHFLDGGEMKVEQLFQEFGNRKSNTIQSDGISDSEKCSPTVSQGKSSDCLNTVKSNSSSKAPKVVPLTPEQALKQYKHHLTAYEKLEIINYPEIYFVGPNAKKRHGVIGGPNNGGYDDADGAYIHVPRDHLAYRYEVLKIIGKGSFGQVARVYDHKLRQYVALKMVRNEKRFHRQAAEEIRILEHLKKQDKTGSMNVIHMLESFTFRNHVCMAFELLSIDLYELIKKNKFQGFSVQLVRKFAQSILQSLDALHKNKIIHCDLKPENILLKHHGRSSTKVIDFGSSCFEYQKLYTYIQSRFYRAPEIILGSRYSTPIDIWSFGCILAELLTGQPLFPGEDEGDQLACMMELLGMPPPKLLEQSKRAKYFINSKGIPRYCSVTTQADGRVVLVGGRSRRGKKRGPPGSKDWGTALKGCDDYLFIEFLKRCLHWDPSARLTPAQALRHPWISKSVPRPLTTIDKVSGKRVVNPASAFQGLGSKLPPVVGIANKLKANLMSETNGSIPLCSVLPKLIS

[11] = system: RPS6KB1 (human), P23443 [T412E]
[12] = target: FLT1 (human) (UniProt P17948); conditions: compound 10.0 µM
[13] = target: EPHB2 (human) (UniProt P29323); conditions: compound 10.0 µM
[14] = target: BRSK1 (human) (UniProt Q8TDC3); conditions: compound 10.0 µM
[15] = target: PIM1 (human) (UniProt P11309)
Sequence of PIM1 (human) (P11309 whole entry, looked up): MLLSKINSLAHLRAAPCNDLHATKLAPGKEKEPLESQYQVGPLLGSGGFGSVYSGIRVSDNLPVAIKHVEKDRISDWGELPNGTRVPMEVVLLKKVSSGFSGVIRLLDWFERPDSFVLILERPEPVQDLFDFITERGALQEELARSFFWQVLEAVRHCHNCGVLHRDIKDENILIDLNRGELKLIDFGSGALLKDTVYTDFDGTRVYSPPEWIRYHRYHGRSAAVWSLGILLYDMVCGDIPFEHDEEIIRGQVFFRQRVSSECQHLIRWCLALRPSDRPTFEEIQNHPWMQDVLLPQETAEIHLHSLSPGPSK

[16] = target: MAPK11 (human) (UniProt Q15759)
[17] = target: JAK2 JH1 JH2 (human) (UniProt O60674); conditions: compound 10.0 µM
[18] = target: INSR (human) (UniProt P06213); conditions: compound 10.0 µM
[19] = target: TBK1 (human) (UniProt Q9UHD2); conditions: compound 10.0 µM
[20] = target: STK3 (human) (UniProt Q13188)
Sequence of STK3 (human) (Q13188 whole entry, looked up): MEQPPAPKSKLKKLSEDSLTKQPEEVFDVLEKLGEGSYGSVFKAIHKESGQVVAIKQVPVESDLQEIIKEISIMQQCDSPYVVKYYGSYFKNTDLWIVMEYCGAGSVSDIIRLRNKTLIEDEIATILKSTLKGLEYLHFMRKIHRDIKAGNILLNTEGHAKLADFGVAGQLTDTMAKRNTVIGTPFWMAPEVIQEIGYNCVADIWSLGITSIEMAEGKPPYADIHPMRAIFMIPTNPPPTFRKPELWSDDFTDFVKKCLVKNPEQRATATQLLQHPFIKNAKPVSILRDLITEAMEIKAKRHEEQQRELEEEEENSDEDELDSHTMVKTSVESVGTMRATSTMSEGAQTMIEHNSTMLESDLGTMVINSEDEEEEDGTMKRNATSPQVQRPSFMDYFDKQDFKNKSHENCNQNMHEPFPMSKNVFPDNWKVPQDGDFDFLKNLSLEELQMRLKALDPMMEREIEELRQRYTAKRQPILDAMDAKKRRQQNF

[21] = target: AURKA (human) (UniProt O14965); conditions: compound 10.0 µM
[22] = target: DYRK2 (human) (UniProt Q92630)
Sequence of DYRK2 (human) (Q92630 whole entry, looked up): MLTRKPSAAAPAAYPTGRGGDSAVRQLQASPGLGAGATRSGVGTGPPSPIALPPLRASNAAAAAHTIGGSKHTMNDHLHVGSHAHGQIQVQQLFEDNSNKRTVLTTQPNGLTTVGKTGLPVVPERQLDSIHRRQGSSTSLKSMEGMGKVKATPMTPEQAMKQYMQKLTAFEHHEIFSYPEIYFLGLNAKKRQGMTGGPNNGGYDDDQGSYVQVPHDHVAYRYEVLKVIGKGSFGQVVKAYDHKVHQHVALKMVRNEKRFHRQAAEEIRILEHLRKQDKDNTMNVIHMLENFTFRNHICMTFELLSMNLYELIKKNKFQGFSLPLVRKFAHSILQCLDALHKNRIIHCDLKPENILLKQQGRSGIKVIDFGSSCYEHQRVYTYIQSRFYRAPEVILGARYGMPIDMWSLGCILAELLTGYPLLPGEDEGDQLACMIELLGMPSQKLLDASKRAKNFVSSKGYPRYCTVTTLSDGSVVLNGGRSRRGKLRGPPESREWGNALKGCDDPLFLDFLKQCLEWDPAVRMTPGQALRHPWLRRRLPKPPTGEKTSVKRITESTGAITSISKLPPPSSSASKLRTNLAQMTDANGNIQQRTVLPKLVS

[23] = system: AKT1 (human), P31749 [S473D]
Sequence of AKT1 (human), P31749 [S473D] (P31749 whole entry S473D, looked up): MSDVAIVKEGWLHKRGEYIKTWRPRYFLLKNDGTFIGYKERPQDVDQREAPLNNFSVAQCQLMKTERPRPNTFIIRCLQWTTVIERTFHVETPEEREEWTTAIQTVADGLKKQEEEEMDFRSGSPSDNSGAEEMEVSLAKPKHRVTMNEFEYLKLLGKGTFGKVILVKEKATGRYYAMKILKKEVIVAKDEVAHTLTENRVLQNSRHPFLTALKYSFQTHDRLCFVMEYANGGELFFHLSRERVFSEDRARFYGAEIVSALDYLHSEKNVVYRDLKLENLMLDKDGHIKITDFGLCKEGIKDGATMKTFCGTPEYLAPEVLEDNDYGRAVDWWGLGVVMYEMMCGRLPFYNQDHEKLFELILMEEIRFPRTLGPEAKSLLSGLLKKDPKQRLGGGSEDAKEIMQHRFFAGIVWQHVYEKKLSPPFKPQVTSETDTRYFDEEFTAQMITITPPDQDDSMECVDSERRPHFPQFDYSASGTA

[24] = target: TAOK1 (human) (UniProt Q7L7X3); conditions: compound 10.0 µM
[25] = target: MAP2K1 (human) (UniProt Q02750)
Sequence of MAP2K1 (human) (Q02750 whole entry, looked up): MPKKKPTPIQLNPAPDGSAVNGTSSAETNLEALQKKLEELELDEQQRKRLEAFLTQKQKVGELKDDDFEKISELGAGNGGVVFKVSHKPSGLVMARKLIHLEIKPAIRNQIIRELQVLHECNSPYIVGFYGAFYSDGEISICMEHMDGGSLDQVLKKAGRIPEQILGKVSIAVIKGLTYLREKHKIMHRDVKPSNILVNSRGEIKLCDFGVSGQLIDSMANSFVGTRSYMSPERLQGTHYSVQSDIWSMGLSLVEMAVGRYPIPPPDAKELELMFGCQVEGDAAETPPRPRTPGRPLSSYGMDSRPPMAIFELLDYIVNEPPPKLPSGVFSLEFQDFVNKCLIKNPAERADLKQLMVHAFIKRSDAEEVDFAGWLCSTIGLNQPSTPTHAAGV

[26] = target: CaMK1 (human) (UniProt Q14012)
[27] = target: SYK (human) (UniProt P43405); conditions: compound 10.0 µM
[28] = target: PRKCA (human) (UniProt P17252)
[29] = target: MAP3K5 (human) (UniProt Q99683); conditions: compound 10.0 µM
[30] = target: EPHB1 (human) (UniProt P54762); conditions: compound 10.0 µM
[31] = target: EPHA2 (human) (UniProt P29317); conditions: compound 10.0 µM
[32] = target: MARK3 (human) (UniProt P27448)
[33] = target: BTK (human) (UniProt Q06187); conditions: compound 10.0 µM
[34] = target: MAPK8 (human) (UniProt P45983)
[35] = target: MAP3K11 (human) (UniProt Q16584); conditions: compound 10.0 µM
[36] = target: EPHB4 (human) (UniProt P54760); conditions: compound 10.0 µM

Sequence of MAPKAPK5 (human) (Q8IW41 whole entry, looked up): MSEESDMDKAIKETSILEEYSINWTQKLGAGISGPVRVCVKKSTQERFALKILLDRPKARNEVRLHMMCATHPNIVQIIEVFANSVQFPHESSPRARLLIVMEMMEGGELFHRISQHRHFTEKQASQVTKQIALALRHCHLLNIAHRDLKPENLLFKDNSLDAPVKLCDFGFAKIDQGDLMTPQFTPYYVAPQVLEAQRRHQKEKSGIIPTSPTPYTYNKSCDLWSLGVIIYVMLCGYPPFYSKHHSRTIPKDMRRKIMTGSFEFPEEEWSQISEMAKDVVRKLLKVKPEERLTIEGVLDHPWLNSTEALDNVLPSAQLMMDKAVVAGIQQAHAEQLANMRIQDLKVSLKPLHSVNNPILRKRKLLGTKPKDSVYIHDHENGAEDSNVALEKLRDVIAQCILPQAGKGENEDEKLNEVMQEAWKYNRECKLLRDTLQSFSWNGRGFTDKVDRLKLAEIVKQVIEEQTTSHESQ
Sequence of MAPK10 (human) (P53779 whole entry, looked up): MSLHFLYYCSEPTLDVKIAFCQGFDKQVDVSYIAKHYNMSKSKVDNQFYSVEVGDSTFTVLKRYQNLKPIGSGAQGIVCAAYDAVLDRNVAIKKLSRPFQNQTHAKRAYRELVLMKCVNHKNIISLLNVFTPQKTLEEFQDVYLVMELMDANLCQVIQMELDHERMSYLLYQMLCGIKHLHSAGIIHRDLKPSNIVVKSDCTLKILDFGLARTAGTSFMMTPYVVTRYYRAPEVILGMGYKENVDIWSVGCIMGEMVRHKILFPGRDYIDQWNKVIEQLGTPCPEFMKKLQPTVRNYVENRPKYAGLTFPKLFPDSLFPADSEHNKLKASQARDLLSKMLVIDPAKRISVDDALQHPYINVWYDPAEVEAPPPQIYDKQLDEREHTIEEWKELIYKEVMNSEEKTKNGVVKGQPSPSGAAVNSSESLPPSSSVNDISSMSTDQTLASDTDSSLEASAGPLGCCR

Oc1ccc(/C=C/c2cc(O)cc(O)c2)cc1
residual activity ([1]; compound 1.0 µM): 105% | residual activity ([1]; compound 10.0 µM): 85% | residual activity ([1]; compound 50.0 µM): 56% | residual activity [2]: 77% | residual activity ([3]; compound 1.0 µM): 80% | residual activity ([3]; compound 10.0 µM): 87% | residual activity ([3]; compound 50.0 µM): 114% | residual activity [4]: 48% | residual activity [5]: 73% | residual activity ([6]; compound 1.0 µM): 54% | residual activity ([6]; compound 10.0 µM): 50% | residual activity ([6]; compound 50.0 µM): 13% | residual activity ([7]; compound 1.0 µM): 60% | residual activity ([7]; compound 10.0 µM): 30% | residual activity ([7]; compound 50.0 µM): 3% | residual activity [8]: 90% | residual activity ([9]; compound 1.0 µM): 95% | residual activity ([9]; compound 10.0 µM): 86% | residual activity ([9]; compound 50.0 µM): 103% | residual activity ([10]; compound 1.0 µM): 38% | residual activity ([10]; compound 10.0 µM): 8% | residual activity ([10]; compound 50.0 µM): 2% | residual activity ([11]; compound 1.0 µM): 93% | residual activity ([11]; compound 10.0 µM): 69% | residual activity ([11]; compound 50.0 µM): 15% | residual activity [12]: 51% | residual activity [13]: 116% | residual activity [14]: 56% | residual activity ([15]; compound 1.0 µM): 50% | residual activity ([15]; compound 10.0 µM): 30% | residual activity ([15]; compound 50.0 µM): 4% | residual activity ([16]; compound 1.0 µM): 112% | residual activity ([16]; compound 10.0 µM): 93% | residual activity ([16]; compound 50.0 µM): 108% | residual activity [17]: 27% | residual activity [18]: 50% | residual activity [19]: 79% | residual activity ([20]; compound 1.0 µM): 84% | residual activity ([20]; compound 10.0 µM): 69% | residual activity ([20]; compound 50.0 µM): 28% | residual activity [21]: 100% | residual activity ([22]; compound 1.0 µM): 40% | residual activity ([22]; compound 10.0 µM): 15% | residual activity ([22]; compound 50.0 µM): 1% | residual activity ([23]; compound 1.0 µM): 82% | residual activity ([23]; compound 10.0 µM): 89% | residual activity ([23]; compound 50.0 µM): 63% | residual activity [24]: 32% | residual activity ([25]; compound 1.0 µM): 99% | residual activity ([25]; compound 10.0 µM): 81% | residual activity ([25]; compound 50.0 µM): 75% | residual activity ([26]; compound 1.0 µM): 75% | residual activity ([26]; compound 10.0 µM): 73% | residual activity ([26]; compound 50.0 µM): 38% | residual activity [27]: 92% | residual activity ([28]; compound 1.0 µM): 96% | residual activity ([28]; compound 10.0 µM): 82% | residual activity ([28]; compound 50.0 µM): 58% | residual activity [29]: 77% | residual activity [30]: 97% | residual activity [31]: 81% | residual activity ([32]; compound 1.0 µM): 99% | residual activity ([32]; compound 10.0 µM): 82% | residual activity ([32]; compound 50.0 µM): 41% | residual activity [33]: 75% | residual activity ([34]; compound 1.0 µM): 96% | residual activity ([34]; compound 10.0 µM): 108% | residual activity ([34]; compound 50.0 µM): 101% | residual activity [35]: 35% | residual activity [36]: 99%
